According to patent US20250228239A1, “MOLECULES HAVING PESTICIDAL UTILITY, AND INTERMEDIATES, COMPOSITIONS, AND PROCESSES, RELATED THERETO” (priority 2024, published 2025):

Legend:
Format in all cases: in vivo
[1] = system: Beet Armyworm (Spodoptera exigua, LAPHEG); test: Bioassays on Beet Armyworm (BAW), 128-well diet tray assay; conditions: Spodoptera exigua; Table ABC: Biological Results; species BAW; read-out: BAW
How it was run: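 Percent larval mortality, averaged across eight wells, scored after five to seven days at 25° C. under 14:10 light-dark. Each well held one to five second instars feeding on diet dosed at 50 μg/cm^2 with compound from 90:10 acetone-water, solvent dried off.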

[2] = system: Green Peach Aphid (Myzus persicae, MYZUPE); test: Bioassays on Green Peach Aphid (GPA), foliar spray on cabbage seedlings; conditions: 72 h, Table ABC: Biological Results, species GPA, read-out: GPA
Description: Certain molecules disclosed in this document were tested against GPA using procedures described in the following example. In the reporting of the results, the “GPA & YFM Rating Table” was used (See Table Section).
Cabbage seedlings grown in 3-inch pots, with 2-3 small (3-5 cm) true leaves, were used as test substrate. The seedlings were infested with 20-50 GPA (wingless adult and nymph stages) one day prior to chemical application. Four pots with individual seedlings were used for each treatment. Test molecules (2 mg) were dissolved in 2 mL of acetone/methanol (1:1) solvent, forming stock solutions of 1000 ppm test molecule. The stock solutions were diluted 5× with 0.025% Tween 20 in water to obtain the solution at 200 ppm test molecule. A hand-held aspirator-type sprayer was used for spraying a solution to both sides of […] leaves until runoff. Reference plants (solvent check) were sprayed with the diluent only containing 20% by volume of acetone/methanol (1:1) solvent. Treated plants were held in a holding room for three days at approximately 25° C. and ambient relative humidity (RH) prior to grading. Evaluation was conducted by counting the number of live aphids per plant under a microscope. Percent control was measured using Abbott's correction formula (W. S. Abbott, “A Method of Computing the Effectiveness of an Insecticide” J. Econ. Entomol. 18 (1925), pp. 265-267) as follows. Corrected % Control=100*(X−Y)/X where X=No. of live aphids on solvent check plants and Y=No. of live aphids on treated plants. The results are indicated in the table entitled “Table ABC: Biological Results” (See Table Section).

[3] = system: Cabbage Looper (Trichoplusia ni, TRIPNI); test: Bioassays on Cabbage Looper (CL), 128-well diet tray assay; conditions: Trichoplusia ni; Table ABC: Biological Results; species CL; read-out: CL
How it was run: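 Percent mortality, averaged across eight replicate wells, after second-instar larvae (1–5 per well) fed for five to seven days on diet dosed at 50 μg/cm^2. Compound was applied in acetone-water 90:10 and dried; trays kept vented at 25° C under 14:10 photoperiod.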

[4] = system: Yellow Fever Mosquito (Aedes aegypti, AEDSAE); conditions: Table ABC: Biological Results; species YFM
How it was run: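 Compounds from 4000 ppm DMSO stocks were diluted in 90:10 water/acetone and dispensed into wells, then infested with about 1-day-old larvae in liver-powder water. Covered plates were held at room temperature for 3 days and each well was scored for mortality against a rating scale; six replicate plates per compound.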

| Compound | pest or weed control at 50 µg/cm2 [1] [%] | pest or weed control at 200 µg/mL [2] [%] | pest or weed control at 50 µg/cm2 [3] [%] | YFM [4] |
| --- | --- | --- | --- | --- |
| Nc1c(F)ccc(NC(=O)c2cc(NC(=O)[C@H]3[C@H](c4ccc(Cl)c(C(F)(F)F)c4)C3(Cl)Cl)ccc2Cl)c1F (relative stereo) [F1079, trans-N-(3-Amino-2,4-difluorophenyl)-2-chloro-5-(2,2-dichloro-3-(4-chloro-3-(trifluoromethyl)phenyl)cyclopropane-1-carboxamido)benzamide] | 50 to 100 | 80 to 100 | 50 to 100 | A (80–100) |
| O=C(Nc1ccc(F)cc1F)c1cc(NC(=O)[C@H]2[C@H](c3ccc(S(F)(F)(F)(F)F)cc3)C2(Cl)Cl)ccc1Cl (relative stereo) [F1089, trans-2-Chloro-5-(2,2-dichloro-3-(4-(pentafluoro-λ^6-sulfanyl)phenyl)cyclopropane-1-carboxamido)-N-(2,4-difluorophenyl)benzamide] | 50 to 100 | 0 to 80 | 50 to 100 | A (80–100) |
| CCN(C(=O)c1cc(NC(=O)[C@H]2[C@H](c3cc(Cl)cc(Cl)c3)C2(Cl)Cl)ccc1Cl)c1ccc(F)cc1C#N (relative stereo) [F1091, trans-2-Chloro-N-(2-cyano-4-fluorophenyl)-5-(2,2-dichloro-3-(3,5-dichlorophenyl)cyclopropane-1-carboxamido)-N-ethylbenzamide] | 50 to 100 | 0 to 80 | 50 to 100 | A (80–100) |
| N#Cc1cc(F)ccc1N(Cc1ccccc1)C(=O)c1cc(NC(=O)[C@H]2[C@H](c3cc(Cl)cc(Cl)c3)C2(Cl)Cl)ccc1Cl (relative stereo) [F1099, trans-N-Benzyl-2-chloro-N-(2-cyano-4-fluorophenyl)-5-(2,2-dichloro-3-(3,5-dichlorophenyl)cyclopropane-1-carboxamido)benzamide] | 50 to 100 | 0 to 80 | 50 to 100 | A (80–100) |
| O=C(Nc1ccc(F)cc1)c1c(Cl)ccc(NC(=O)[C@H]2[C@H](c3ccc(F)c(Cl)c3)C2(Cl)Cl)c1Cl (relative stereo) [F1103, trans-2,6-Dichloro-3-(2,2-dichloro-3-(3-chloro-4-fluorophenyl)cyclopropane-1-carboxamido)-N-(4-fluorophenyl)benzamide] | 50 to 100 | 0 to 80 | 50 to 100 | A (80–100) |
| O=C(Nc1ccc(F)cc1F)c1c(Cl)ccc(NC(=O)[C@H]2[C@H](c3ccc(F)c(Cl)c3)C2(Cl)Cl)c1Cl (relative stereo) [F1105, trans-2,6-dichloro-3-(2,2-dichloro-3-(3-chloro-4-fluorophenyl)cyclopropane-1-carboxamido)-N-(2,4-difluorophenyl)benzamide] | 50 to 100 | 0 to 80 | 50 to 100 | A (80–100) |
| O=C(Nc1ccccc1)c1c(F)ccc(NC(=O)[C@H]2[C@H](c3ccc(F)c(Cl)c3)C2(Cl)Cl)c1F (relative stereo) [F1108, trans-3-(2,2-Dichloro-3-(3-chloro-4-fluorophenyl)cyclopropane-1-carboxamido)-2,6-difluoro-N-phenylbenzamide] | 50 to 100 | 80 to 100 | 50 to 100 | A (80–100) |
| O=C(Nc1ccc(F)cc1F)c1cc(NC(=O)[C@H]2[C@H](c3cc(Cl)c(Cl)c(C(F)(F)F)c3)C2(Cl)Cl)ccc1Cl (relative stereo) [F1147, trans-2-Chloro-5-(2,2-dichloro-3-(3,4-dichloro-5-(trifluoromethyl)phenyl)cyclopropane-1-carboxamido)-N-(2,4-difluorophenyl)benzamide] | 50 to 100 | 80 to 100 | 50 to 100 | A (80–100) |
